Source: patent publication US8901111B2, “Aryl-substituted heterocyclic urea modulators of fatty acid amide hydrolase” (Janssen Pharmaceutica NV, priority 2009, dated 2014)
Counter-ions that a name gives are not always drawn.

What was measured:
[1] = target: T1, FAAH (Homo sapiens, UniProt O00519); assay: Assay Method 1: FAAH assay, 3H-anandamide hydrolysis in homogenate of cells transfected with human FAAH; type: biochemical; set-up: expressed in transfected cells; crude homogenate (T84 cell pellets named as alternative); conditions: cell homogenate, 3H-AEA 80 nM, 1 h at rt, average of results
T1 sequence (O00519 1-579): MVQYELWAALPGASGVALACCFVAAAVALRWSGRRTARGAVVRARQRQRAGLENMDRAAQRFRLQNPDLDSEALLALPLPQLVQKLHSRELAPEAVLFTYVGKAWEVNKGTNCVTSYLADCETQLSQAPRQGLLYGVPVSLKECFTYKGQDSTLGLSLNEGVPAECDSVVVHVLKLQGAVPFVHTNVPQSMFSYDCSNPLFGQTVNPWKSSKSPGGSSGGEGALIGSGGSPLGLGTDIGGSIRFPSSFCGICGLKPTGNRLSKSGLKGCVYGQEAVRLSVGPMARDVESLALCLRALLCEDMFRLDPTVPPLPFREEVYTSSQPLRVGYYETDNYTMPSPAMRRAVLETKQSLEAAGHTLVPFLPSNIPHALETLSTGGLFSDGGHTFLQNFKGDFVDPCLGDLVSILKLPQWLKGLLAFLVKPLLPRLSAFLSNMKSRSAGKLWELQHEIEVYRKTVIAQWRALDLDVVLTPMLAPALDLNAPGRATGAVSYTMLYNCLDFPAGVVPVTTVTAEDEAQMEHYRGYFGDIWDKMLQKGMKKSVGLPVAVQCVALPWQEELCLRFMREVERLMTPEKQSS
Description: A. Transfection of Cells with Human FAAH
(§1) A 10-cm tissue culture dish with a confluent monolayer of SK-N-MC cells was split 2 days (d) prior to transfection. Using sterile technique, the media was removed and the cells were detached from the dish by the addition of trypsin. One fifth of the cells were then placed onto a new 10-cm dish. Cells were grown in a 37° C. incubator with 5% CO2 in Minimal Essential Media Eagle with 10% Fetal Bovine Serum. After 2 d, cells were approximately 80% confluent. These cells were removed from the dish with trypsin and pelleted in a clinical centrifuge. The pellet was re-suspended in 400 μL complete media and transferred to an electroporation cuvette with a 0.4 cm gap between the electrodes. Supercoiled human FAAH cDNA (1 μg) was added to the cells and mixed. The voltage for the electroporation was set at 0.25 kV, and the capacitance was set at 960 After electroporation, the cells were diluted into complete media (10 mL) and plated onto four 10-cm dishes. Because of the variability in the efficiency of electroporation, four different concentrations of cells were plated. The ratios used were 1:20, 1:10, and 1:5, with the remainder of the cells being added to the fourth dish. The cells were allowed to recover for 24 h before adding the selection media (complete media with 600 μg/mL G418). After 10 d, dishes were analyzed for surviving colonies of cells. Dishes with well-isolated colonies were used. Cells from individual colonies were isolated and tested.
(§2) T84 frozen cell pellets or transfected SK-N-MC cells (contents of 1×15 cm culture dishes) were homogenized in 50 mL of FAAH assay buffer (125 mM Tris, 1 mM EDTA, 0.2% Glycerol, 0.02% Triton X-100, 0.4 mM Hepes, pH 9). The assay mixture consisted of 50 μL of the cell homogenate, 10 μL of the test compound, and 40 μL of anandamide [1-^3H-ethanolamine] (^3H-AEA, Perkin-Elmer, 10.3 Ci/mmol), which was added last, for a final tracer concentration of 80 nM. The reaction mixture was incubated at rt for 1 h. During the incubation, 96-well Multiscreen filter plates (catalog number MAFCNOB50; Millipore, Bedford, Mass., USA) were loaded with 25 μL of activated charcoal (Multiscreen column loader, catalog number MACL09625, Millipore) and washed once with 100 μL of MeOH. Also during the incubation, 96-well DYNEX MicroLite plates (catalog number NL510410) were loaded with 100 μL of MicroScint40 (catalog number 6013641, Packard Bioscience, Meriden, Conn., USA). After the 1 h incubation, 60 μL of the reaction mixture were transferred to the charcoal plates, which were then assembled on top of the DYNEX plates using Centrifuge Alignment Frames (catalog number MACF09604, Millipore). The unbound labeled ethanolamine was centrifuged through to the bottom plate (5 min at 2000 rpm), which was preloaded with the scintillant, as described above. The plates were sealed and left at rt for 1 h before counting on a Hewlett Packard TopCount.
(§3) Results for compounds tested in these assays are summarized in Table 1, as an average of results obtained. Compounds were tested in the free base or trifluoroacetic acid salt form. Compounds tested in the trifluoroacetic acid salt form are indicated as such by a “*” designation after the example number. Where activity is shown as greater than (>) a particular value, the value is the solubility limit of the compound in the assay medium or the highest concentration tested in the assay.

[2] = target: T2, rat FAAH (Rattus norvegicus, UniProt P97612); assay: Assay Method 2: FAAH assay, 3H-anandamide hydrolysis in homogenate of cells transfected with rat FAAH; type: biochemical; conditions: cell homogenate, 3H-AEA 80 nM, 1 h at rt, average of results
T2 construct: expressed in transfected cells; crude homogenate
T2 sequence (P97612 1-579): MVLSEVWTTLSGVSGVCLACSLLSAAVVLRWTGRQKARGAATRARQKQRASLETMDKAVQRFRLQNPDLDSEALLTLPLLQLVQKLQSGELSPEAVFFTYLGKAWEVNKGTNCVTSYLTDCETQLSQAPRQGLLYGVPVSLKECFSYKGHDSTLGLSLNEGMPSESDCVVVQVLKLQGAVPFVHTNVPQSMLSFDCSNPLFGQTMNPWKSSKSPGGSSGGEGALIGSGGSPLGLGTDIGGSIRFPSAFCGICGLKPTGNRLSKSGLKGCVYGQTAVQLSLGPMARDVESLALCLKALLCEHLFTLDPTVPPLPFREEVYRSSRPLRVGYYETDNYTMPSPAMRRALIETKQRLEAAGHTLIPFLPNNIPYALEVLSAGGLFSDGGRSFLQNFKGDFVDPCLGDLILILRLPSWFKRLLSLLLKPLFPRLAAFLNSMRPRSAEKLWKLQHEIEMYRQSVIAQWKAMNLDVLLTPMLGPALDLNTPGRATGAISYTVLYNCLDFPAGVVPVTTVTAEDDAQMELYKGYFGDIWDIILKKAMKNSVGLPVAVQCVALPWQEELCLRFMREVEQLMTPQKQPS
Description: A. Transfection of Cells with Rat FAAH
as §1, with “rat” for “human”, “960 μF.” for “960”
as §2, §3

| Structure (SMILES) | IC50 [1] [nM] | IC50 [2] [nM] |
| --- | --- | --- |
| O=C(Nc1cccnc1)N1CCC(Cc2cccc(Oc3ccc(F)cc3)c2)C1 (stereo not drawn) [Example 74, 3-[3-(4-Fluoro-phenoxy)-benzyl]-pyrrolidine-1-carboxylic acid pyridin-3-ylamide] | 1200 | 1100 |
| O=C(Nc1noc2ccccc12)N1CCC(Cc2ccc3c(c2)OC(F)(F)O3)C1 (stereo not drawn) [Example 72, 3-(2,2-Difluoro-benzo[1,3]dioxol-5-ylmethyl)-pyrrolidine-1-carboxylic acid benzo[d]isoxazol-3-ylamide] | > 10000 | 770 |
| O=C(Nc1cccnc1)N1CC(COc2ccc(-c3ccccc3)cc2)C1 [Example 18, 3-(Biphenyl-4-yloxymethyl)-azetidine-1-carboxylic acid pyridin-3-ylamide] | > 10000 | > 10000 |
| O=C(Nc1cccnc1)N1CCC(Cc2ccc3c(c2)OC(F)(F)O3)C1 (stereo not drawn) [Example 71, 3-(2,2-Difluoro-benzo[1,3]dioxol-5-ylmethyl)-pyrrolidine-1-carboxylic acid pyridin-3-ylamide] | > 10000 | > 10000 |
| O=C(Nc1cccnc1)N1CC(COc2ccc(OC(F)(F)F)cc2)C1 [Example 5, 3-(4-Trifluoromethoxy-phenoxymethyl)-azetidine-1-carboxylic acid pyridin-3-ylamide] | > 10000 | 3000 |
| O=C(Nc1cccnc1)N1CCC(CCOc2ccccc2)C1 (stereo not drawn) [Example 54, 3-(2-Phenoxy-ethyl)-pyrrolidine-1-carboxylic acid pyridin-3-ylamide] | > 10000 | > 10000 |
| C#Cc1cccc(OCCC2CN(C(=O)Nc3cccnc3)C2)c1 [Example 37, 3-[2-(3-Ethynyl-phenoxy)-ethyl]-azetidine-1-carboxylic acid pyridin-3-ylamide, trifluoroacetate salt] | 140 | 820 |
| O=C(Nc1cccnc1)N1CC(COc2cccc(C(F)(F)F)c2)C1 [Example 8, 3-(3-Trifluoromethyl-phenoxymethyl)-azetidine-1-carboxylic acid pyridin-3-ylamide, trifluoroacetate salt] | 2400 | 620 |
| O=C(Nc1cccnc1)N1CC(CCOc2ccc(Cl)c(Cl)c2)C1 [Example 34, 3-[2-(3,4-Dichloro-phenoxy)-ethyl]-azetidine-1-carboxylic acid pyridin-3-ylamide] | 30 | 54 |
| O=C(Nc1cccnc1)N1CC(CCOc2ccc3ccccc3c2)C1 [Example 35, 3-[2-(Naphthalen-2-yloxy)-ethyl]-azetidine-1-carboxylic acid pyridin-3-ylamide, trifluoroacetate salt] | 160 | 350 |
| O=C(Nc1cccnc1)N1CC(COc2ccc(Br)cc2)C1 [Example 3, 3-(4-Bromo-phenoxymethyl)-azetidine-1-carboxylic acid pyridin-3-ylamide] | > 10000 | > 10000 |
| O=C(Nc1cnccc1Cl)N1CC(CCOc2cccc(Oc3ccc(Cl)cn3)c2)C1 [Example 48, 3-{2-[3-(5-Chloro-pyridin-2-yloxy)-phenoxy]-ethyl}-azetidine-1-carboxylic acid (4-chloro-pyridin-3-yl)-amide] | 1 | 5 |
| O=C(Nc1cccnc1)N1CC(COc2cccc(Oc3ccc(Cl)cc3)c2)C1 [Example 26, 3-[3-(4-Chloro-phenoxy)-phenoxymethyl]-azetidine-1-carboxylic acid pyridin-3-ylamide] | 120 | 200 |
| O=C(Nc1ccc(-n2nccn2)nc1)N1CC(CCOc2cccc(Oc3ccc(Cl)cc3)c2)C1 [Example 39, 3-{2-[3-(4-Chloro-phenoxy)-phenoxy]-ethyl}-azetidine-1-carboxylic acid (6-[1,2,3]triazol-2-yl-pyridin-3-yl)-amide] | 13 | 10 |
| O=C(Nc1cccnc1)N1CC(COc2cccc(Oc3ccc(OC(F)(F)F)cc3)c2)C1 [Example 25, 3-[3-(4-Trifluoromethoxy-phenoxy)-phenoxymethyl]-azetidine-1-carboxylic acid pyridin-3-ylamide] | 50 | 230 |
| O=C(Nc1cnccc1Cl)N1CCC(CCOc2cccc(OC(F)(F)F)c2)C1 (stereo not drawn) [Example 61, 3-[2-(3-Trifluoromethoxy-phenoxy)-ethyl]-pyrrolidine-1-carboxylic acid (4-chloro-pyridin-3-yl)-amide] | 1600 | 1600 |
| CS(=O)(=O)c1ccc(Oc2cccc(OCCC3CN(C(=O)Nc4cccnc4)C3)c2)cc1 [Example 27, 3-{2-[3-(4-Methanesulfonyl-phenoxy)-phenoxy]-ethyl}-azetidine-1-carboxylic acid pyridin-3-ylamide] | 15 | 480 |
| O=C(Nc1cccnc1)N1CC(COc2cccc(OC(F)(F)F)c2)C1 [Example 6, 3-(3-Trifluoromethoxy-phenoxymethyl)-azetidine-1-carboxylic acid pyridin-3-ylamide] | 1100 | 175 |
